According to ChEMBL document CHEMBL1142867, “Antiviral activity of triazine analogues of 1-(S)-[3-hydroxy-2-(phosphonomethoxy)propyl]cytosine (cidofovir) and related compounds” (J Med Chem, 2007):
Converted amounts (≈) assume the structure as drawn.

Legend:
[1] = test system: Sindbis virus; assay type: functional, organism-based; details: Vero
[2] = Cytotoxicity against E6SM cells assessed as alteration in cell morphology; assay type: cell-based; details: human
[3] = test system: Human adenovirus 2; assay type: functional, organism-based; details: Human mastadenovirus C, HEL
[4] = test system: Moloney murine sarcoma virus; experiment: Antiviral activity against MSV in mouse C3H cells assessed as inhibition of virus-induced transformation after 6 days; assay type: functional, organism-based; details: 144 h
[5] = test system: Mammalian orthoreovirus 1; assay type: functional, organism-based; details: Mammalian orthoreovirus 1, Vero
[6] = test system: Punta Toro virus; assay type: functional, organism-based; details: Vero
[7] = test system: Yellow fever virus; assay type: functional, organism-based; details: Vero
[8] = test system: Human alphaherpesvirus 1; assay type: functional, organism-based; details: Human alphaherpesvirus 1, KOS, HEL
[9] = test system: Human betaherpesvirus 5; assay type: functional, organism-based; details: Human betaherpesvirus 5, AD169, HEL
[10] = test system: Human alphaherpesvirus 2; assay type: functional, organism-based; details: Human alphaherpesvirus 2, G, HEL
[11] = Cytotoxicity against HEL cells assessed as alteration in cell morphology after 3 days; assay type: cell-based; details: human, read-out: Activity
[12] = Cytotoxicity against HeLa cells assessed as alteration in cell morphology; assay type: cell-based; details: human
[13] = test system: Vesicular stomatitis virus; experiment: microbe, parasite or virus in culture; details: E6SM
[14] = test system: Human alphaherpesvirus 2; assay type: functional, organism-based; details: Human alphaherpesvirus 2, Lyons, HEL
[15] = test system: Human respirovirus 3; assay type: functional, organism-based; details: Human respirovirus 3, Vero
[16] = test system: Vaccinia virus; assay type: functional, organism-based; details: Orthopoxvirus vaccinia, Lederle, HEL
[17] = test system: Human alphaherpesvirus 1; assay type: functional, organism-based; details: Human alphaherpesvirus 1, KOS, HEL; remark: listed apart in the source
[18] = Cytotoxicity against Huh5-2 cells assessed as reduction of cell growth; assay type: cell-based, Huh-5-2; details: human
[19] = test system: Coxsackievirus B4; assay type: functional, organism-based; details: Enterovirus B, Vero
[20] = test system: Coxsackievirus B4; assay type: functional, organism-based; details: Enterovirus B, HeLa
[21] = test system: Human alphaherpesvirus 3; experiment: Antiviral activity against TK- VZV 07-1 in HEL cells assessed as inhibition of plaque formation; assay type: functional, organism-based; details: Human alphaherpesvirus 3, 07-1, HEL
[22] = Cytotoxicity against Vero cells assessed as alteration in cell morphology; assay type: cell-based; details: chlorocebus sabaeus
[23] = test system: Human immunodeficiency virus 2; assay type: functional, organism-based; details: Human immunodeficiency virus 2, ROD, CCRF-CEM
[24] = Cytotoxicity against CEM cells assessed as reduction of cell growth; assay type: cell-based; details: human, CEM (CCRF-CEM) cells
[25] = test system: Hepatitis C virus; experiment: Antiviral activity against HCV in Huh5-2 cells assessed as inhibition of HCV subgenomic replicon replication; assay type: functional, organism-based, Hepacivirus hominis; details: Huh-5-2
[26] = test system: Human immunodeficiency virus 1; assay type: functional, organism-based; details: Human immunodeficiency virus 1, 3B, CCRF-CEM
[27] = test system: Respiratory syncytial virus; assay type: functional, organism-based; details: human respiratory syncytial virus, Long, HeLa
[28] = test system: Vesicular stomatitis virus; experiment: microbe, parasite or virus in culture; details: HeLa
[29] = Cytotoxicity against C3H cells assessed as alteration in cell morphology; assay type: cell-based; details: mouse
[30] = test system: Human betaherpesvirus 5; assay type: functional, organism-based; details: Human betaherpesvirus 5, Davis, HEL
[31] = test system: HEL; experiment: Cytotoxicity against HEL cells assessed as inhibition of cell growth after 3 days; assay type: cell-based; details: human, 72 h
[32] = test system: Human alphaherpesvirus 3; experiment: Antiviral activity against VZV OKA in HEL cells assessed as inhibition of plaque formation; assay type: functional, organism-based; details: Human alphaherpesvirus 3, OKA
[33] = Cytotoxicity against HSB2 cells assessed as alteration in cell morphology; assay type: cell-based, CCRF-HSB-2; details: human, read-out: Activity

SMILES | EC50 [1] [µg/mL] | MCC [2] [µg/mL] | EC50 [4] [µg/mL] | EC50 [5] [µg/mL] | EC50 [6] [µg/mL] | EC50 [8] [µg/mL] | EC50 [9] [µg/mL] | EC50 [10] [µg/mL] | MCC at 72 h [11] [µg/mL] | MCC [12] [µg/mL] | EC50 [13] [µg/mL] | EC50 [14] [µg/mL] | EC50 [15] [µg/mL] | EC50 [16] [µg/mL] | EC50 [17] [µg/mL] | EC50 [19] [µg/mL] | EC50 [20] [µg/mL] | EC50 [21] [µg/mL] | MCC [22] [µg/mL] | EC50 [23] [µg/mL] | further results
Nc1cnn(C[C@@H](CO)OCP(=O)(O)O)c(=O)n1 | > 80 | > 400 | 170 (≈ 607 µM) | > 80 | > 80 | 8.84 (≈ 31.6 µM) | 30 (≈ 107 µM) | 31.5 (≈ 112 µM) | > 100 | > 400 | > 400 | ≥ 43.4 | > 80 | 63.1 (≈ 225 µM) | 24.9 (≈ 88.9 µM) | > 80 | > 400 | 18.4 (≈ 65.7 µM) | 400 | > 100 | EC50 [3]: > 100 µg/mL; EC50 [7]: > 100 µg/mL; CC50 [18]: 111 µg/mL (≈ 396 µM); CC50 [24]: > 100 µg/mL; EC50 [25]: 750 µg/mL (≈ 2680 µM); EC50 [26]: > 100 µg/mL; EC50 [27]: > 400 µg/mL; EC50 [28]: > 400 µg/mL; MCC [29]: 100 µg/mL; EC50 [30]: 37.3 µg/mL (≈ 133 µM); Activity [31]: > 50 µg/mL; EC50 [32]: 38.2 µg/mL (≈ 136 µM)
NC(=NC(=O)NC[C@@H](CO)OCP(=O)(O)O)NC=O | > 100 | > 100 | 130 (≈ 436 µM) | > 100 | > 100 | 1.35 (≈ 4.53 µM) | 0.1 (≈ 0.335 µM) | 6.58 (≈ 22.1 µM) | > 50 | > 100 | > 100 | 3.16 (≈ 10.6 µM) | > 100 | 8.35 (≈ 28 µM) | 2.85 (≈ 9.56 µM) | > 100 | > 100 | 0.046 (≈ 0.154 µM) | > 100 | > 100 | EC50 [3]: 17.8 µg/mL (≈ 59.7 µM); CC50 [24]: ≥ 100 µg/mL; EC50 [26]: > 100 µg/mL; MCC [33]: ≥ 200 µg/mL; EC50 [27]: > 100 µg/mL; EC50 [28]: > 100 µg/mL; MCC [29]: > 100 µg/mL; EC50 [30]: 0.12 µg/mL (≈ 0.402 µM); Activity [31]: > 50 µg/mL; EC50 [32]: 0.042 µg/mL (≈ 0.141 µM)
Nc1ncn(CCOCP(=O)(O)O)c(=O)n1 | > 80 | 400 | 7.5 (≈ 30 µM) | > 80 | > 80 | 9.9 (≈ 39.6 µM) | 49 (≈ 196 µM) | 25.8 (≈ 103 µM) | > 100 | 400 | > 80 | 39.3 (≈ 157 µM) | > 80 | > 100 | 17 (≈ 68 µM) | > 80 | > 80 | 10 (≈ 40 µM) | 400 | > 100 | EC50 [7]: > 100 µg/mL; CC50 [18]: > 50 µg/mL; CC50 [24]: 96 µg/mL (≈ 384 µM); EC50 [25]: > 50 µg/mL; EC50 [26]: > 100 µg/mL; EC50 [27]: > 80 µg/mL; EC50 [28]: > 80 µg/mL; MCC [29]: 200 µg/mL; EC50 [30]: 37 µg/mL (≈ 148 µM); Activity [31]: > 50 µg/mL; EC50 [32]: 25 µg/mL (≈ 99.9 µM)
Nc1ncn(C[C@@H](CO)OCP(=O)(O)O)c(=O)n1 | > 80 | > 400 | 22 (≈ 78.5 µM) | > 80 | > 80 | 0.077 (≈ 0.275 µM) | 0.078 (≈ 0.278 µM) | 0.35 (≈ 1.25 µM) | > 50 | > 400 | > 400 | 0.25 (≈ 0.892 µM) | > 80 | 2.56 (≈ 9.14 µM) | 0.24 (≈ 0.857 µM) | > 80 | > 400 | 0.019 (≈ 0.0678 µM) | 400 | > 100 | EC50 [7]: > 100 µg/mL; CC50 [18]: > 50 µg/mL; CC50 [24]: 28 µg/mL (≈ 99.9 µM); EC50 [25]: > 50 µg/mL; EC50 [26]: > 100 µg/mL; MCC [33]: 16 µg/mL; EC50 [27]: > 400 µg/mL; EC50 [28]: > 400 µg/mL; MCC [29]: 20 µg/mL; EC50 [30]: 0.054 µg/mL (≈ 0.193 µM); Activity [31]: >= 140 ug ml-1; EC50 [32]: 0.027 µg/mL (≈ 0.0964 µM)
NC(N)=NC(=O)NC[C@@H](CO)OCP(=O)(O)O | > 100 | > 100 | 68 (≈ 252 µM) | > 100 | > 100 | > 50 | 35.5 (≈ 131 µM) | > 50 | > 50 | > 100 | > 100 | > 50 | > 100 | > 100 | > 50 | > 100 | > 100 | > 50 | > 100 | > 100 | EC50 [3]: > 100 µg/mL; EC50 [7]: > 100 µg/mL; CC50 [18]: > 50 µg/mL; CC50 [24]: > 100 µg/mL; EC50 [26]: > 100 µg/mL; MCC [33]: > 200 µg/mL; EC50 [27]: > 100 µg/mL; EC50 [28]: > 100 µg/mL; MCC [29]: > 100 µg/mL; EC50 [30]: 36.8 µg/mL (≈ 136 µM); Activity [31]: > 50 µg/mL; EC50 [32]: > 50 µg/mL
